Data taken from patent US20210161999A1, “COMPOSITIONS AND METHODS RELATED TO OVERCOMING INNATE IMMUNE BARRIERS TO CANCER IMMUNOTHERAPY” (Health Research, Inc., priority 2018, published 2021).
Entries after “also recorded” stand apart in the source; their conditions may differ.

Assays:
[1] = tested on: PMN suppressor phenotype (suppression of anti-CD3/CD28-stimulated T cell proliferation); assay: Coculture of PMN with ascites supernatants and anti-CD3/CD28-stimulated T cells; T cell proliferation by [3H] thymidine incorporation; format: cell-based, human
Experimental: Freshly isolated T cells (1e5) were stimulated with anti-CD3/CD28 Dynabeads (2.5 μl; Thermo Fisher Scientific) and cocultured with autologous PMN (1:1) and ascites supernatants (50% final well volume) in an incubator at 37° C., 5% CO2. After 72 h, [^3H] thymidine (1 μCi per well) was added and allowed to incorporate for 16-18 h. Cells were harvested onto a Filtermat and counted on a Beta counter. Results are expressed as net cpm [calculated by subtracting the average cpm of unstimulated T cells from the average cpm of stimulated T cells].
Where indicated, T cells, PMN, and ascites supernatants underwent various pretreatments. Where indicated, T cells were pretreated for lh with neutralizing antibody against ICAM-I (1-10 μg), IgG1 isotype (1-10 μg), or media (RPMI 1640, 5-10% heat-inactivated FBS, HEPES, sodium pyruvate, non-essential amino acids, and penicillin-streptomycin).
Where indicated, PMN were pretreated for lh with neutralizing antibody against CD11b (1-10 μg), TGF-beta receptor 1 (1-10 μg) or IgG1 isotype (1-10 μg); thapsigargin (THG, 0.5-2 μM), diphenyleneiodonium (DPI, 1-25 μM), N-Formylmethionine-leucyl-phenylalanine (fMLF, 1-100 nM), brefeldin-A (1-10 μg/mL), ER export inhibitor 1 (Exol, 20-75 μM), CI-amidine (10-20 μM), SNARE decoys: TAT-SNAP23 (0.6-0.9 μg/mL), TAT-SYN4 (0.6-0.9 μg/mL), TAT-GST (0.6-0.9 μg/mL) (produced as described in the laboratory of Dr. Kenneth McLeish), puromycin and actinomycin-D (1-5 μg/mL), or with media.
Where indicated, ascites supernatants were pretreated with heat (56° C., lh) to denature heat-labile constituents or proteinase-K (100 μM, 37° C., 12 h) to degrade proteins. Two formulations of compstatin, a peptide C3 inhibitor, were used: CS (250 μM, 30° C., 2 h, Tocris) and Cp40 (1.25-20 μM, 30° C., 2 h), as well as a scramble peptide. In separate studies, ascites supernatants were ultra-centrifuged (100,000g, 4° C., 1.5 h) to separate the membrane-rich (MR-ASC) and membrane-depleted (MD-ASC) fractions. In others, ascites supernatants were pretreated for lh with neutralizing antibody against C5 (0.5-1.0 μg, A217; Quidel, San Diego, Calif.) or C7 (0.5-1.0 μg, A221; Quidel) or IgG1 isotype (0.5-1.0 μg), or with OmCI (0.6-1.2 μM), a peptide C5 inhibitor derived from the saliva of Ornithodoros moubata (35, 36).

T cells = assay: Surface expression of PD-1, LAG-3 and CTLA-4 on stimulated T cells after coculture (flow cytometry); format: cell-based, human; details: coculture with Cp40-ASC and PMN, compared to unstimulated (n=6)
Experimental: FIG. 6. Combination of ascites and PMN prevents T cell activation and is independent of exhaustion. T cells (CD3^+) and PMN were used in autologous coculture at 1:1. PMN and/or ascites supernatants (ASC; 50% final well volume) were added to anti-CD3/CD28-stimulated T cells. At 24, 48, and 72 h, T cells were analyzed for surface and intracellular expression of markers for activation, co-stimulation, and function. Surface expression of A) CD62L, B) CD69, C) CD4OL, and D) CD107a were evaluated at baseline (on y-axis) and at 24, 48, and 72 h (n=2). E-M) PD-1, LAG-3, and CTLA-4 expression was evaluated (n=4). CD8^+ T cells at 72 h are represented here in representative MFI overlays (E-G) and quantification (H-J); unstimulated T cells in media, grey solid; anti-CD3/CD28-stimulated, black dashed line; anti-CD3/CD28-stimulated+PMN, purple solid line; anti-CD3/CD28-stimulated+ASC, orange solid line; anti-CD3/CD28-stimulated+ASC+PMN, green solid line. […] N) At 72 h, intracellular expression of IFN-gamma was reduced as compared to stimulated alone (n=3). O-P) Combination of ASC and PMN reduced anti-CD3/CD28-stimulated T cell IL-2 levels (pg/mL) in supernatants to ND after 24 (O) and 72 h (P) of coculture (n=4). Background levels of PMN or ASC were ND; ND=non-detectable. Q) CTL activity of NY-ESO-1157-165-specific CD8^+ T cells directed at SK29 target cells pulsed with the NY-ESO-1 peptide was unaffected by coculture with ASC and/or PMN (n=3). Symbols represent individual samples (n) and bars represent SEM. Statistical comparisons were by Mann-Whitney (*, p<0.05; **, p<0.01; ***, p<0.001; ns, not significant). Results were consistent between CD4^+ and CD8^+ T cells.
Data were analyzed using FCS Express 6.
Fc receptors were blocked to prevent non-specific antibody binding prior to staining (15 min, 4° C.; anti-mouse CD16/CD32, clone 2.4G2; BD Biosciences). For phenotyping of PMN, antibodies targeted to human CD45 (clone REA747), CD15 (VIMC6) (Miltenyi Biotec, Inc.), CD63 (H5C6), CD66b (G10F5), and CD35 (Ell) (Biolegend) were used. […]

[2] = PMN viability (PI neg, Annexin-V neg) after exposure to treated ascites; details: human, PMN (neutrophils) exposed to peptide-treated ascites
Experimental: (§1) Where indicated, cells were pelleted for immunophenotyping and supernatants were saved for ELISA at time points throughout coculture. Viability was assessed by staining with Annexin V and/or PI (Dead Cell Apoptosis Kit, V13241, Thermo Fisher Scientific), following the manufacturer's protocols. For surface phenotyping and intracellular staining, cells were stained in buffer (DPBS, 1% BSA, 2 mM EDTA) and Cytofix/Cytoperm buffer kit (BD Biosciences), respectively, following the manufacturer's protocols. Data were analyzed using FCS Express 6.

PMN = assay: as above; details: 24 h exposure to Cp40-treated ascites
Experimental: as §1

## CC[C@H](C)[C@H](NC(=O)[C@H](N)Cc1ccc(O)cc1)C(=O)N[C@H]1CSSC[C@@H](C(=O)N(C)[C@H](C(N)=O)[C@@H](C)CC)NC(=O)[C@H](CCCNC(=N)N)NC(=O)[C@H](Cc2c[nH]cn2)NC(=O)[C@H](C)NC(=O)CN(C)C(=O)[C@H](Cc2c[nH]c3ccccc23)NC(=O)[C@H](CC(=O)O)NC(=O)[C@H](CCC(N)=O)NC(=O)[C@H](Cc2cn(C)c3ccccc23)NC(=O)[C@H](C(C)C)NC1=O [Cp40]
[1]; added to ASC 2 h prior to coculture with PMN and T cells, CS 250 μM, Cp40 20 μM, scramble peptide 20 μM
  effect on PMN suppressor phenotype: completely abrogated the PMN suppressor phenotype; also recorded: fully abrogated the PMN suppressor phenotype; also recorded: completely abrogated the neutrophil suppressor phenotype
[1]; concentration-titration study, FIG. 15B
  Cp40 concentration sufficient to abrogate the PMN suppressor phenotype: 2.5-20 ∥M
[1]; titration study, ASC pretreated (n=3)
  Cp40 concentration sufficient to fully abrogate the PMN suppressor phenotype: 5 µM
T cells
  CTLA-4 expression on stimulated T cells: showed an upwards trend; also recorded: upregulated relative to unstimulated T cells
  LAG-3 expression on stimulated T cells: unaffected; also recorded: did not result in upregulation
  PD-1 expression on stimulated T cells: unaffected; also recorded: did not result in upregulation
[2]
  viability at 24 h, 20 µM: 68 ± 8%
PMN
  neutrophil viability versus untreated or scramble peptide-treated ascites: similar
